Measured values published in US8946142B2, “Beta-arrestin effectors and compositions and methods of use thereof” (Trevena, Inc., priority 2012, dated 2015).
Where a SMILES comes first, the peptide text is derived from it. [ ]: non-standard residue; d: D form. Tle = CC(C)(C)[C@H](N)C(=O)O; Ac6c = NC1(C(=O)O)CCCCC1; Ac5c = NC1(C(=O)O)CCCC1; Sar = CNCC(=O)O

Legend:
Format in all cases: cell-based
[1] = molecular target: T1, rat AT1aR (Rattus norvegicus, UniProt P25095); assay: IP1 accumulation assay (IP1 G-protein assay), rat AT1aR; settings: for Emax: read-out: Span (relative to hAngII)
T1 sequence (P25095 1-359): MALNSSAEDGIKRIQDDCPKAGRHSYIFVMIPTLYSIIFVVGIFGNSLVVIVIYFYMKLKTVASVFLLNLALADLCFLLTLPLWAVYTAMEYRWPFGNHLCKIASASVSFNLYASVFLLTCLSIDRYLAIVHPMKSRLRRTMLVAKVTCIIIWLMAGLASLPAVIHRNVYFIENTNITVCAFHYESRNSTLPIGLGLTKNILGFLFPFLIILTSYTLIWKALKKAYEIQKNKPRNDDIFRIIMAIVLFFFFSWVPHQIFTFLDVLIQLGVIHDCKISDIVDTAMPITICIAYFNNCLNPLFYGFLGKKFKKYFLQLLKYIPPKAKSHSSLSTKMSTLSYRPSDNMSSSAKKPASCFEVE
Method: (§1) A secondary measure of G protein coupling efficacy was also performed. IP3 is generated by activation of phospholipase C by Gα-q. IP3 is degraded to IP1, which can be forced to accumulate in cells by blocking degradation with lithium chloride. Thus we measured accumulation of IP1 to determine ligand efficacy for G protein activation.
(§2) IP1 accumulation generated by human and rat angiotensin 2 type 1 receptor (human AT1R and rat AT1aR, respectively) was measured with IP-One Tb kits purchased from Cisbio and used per the manufacturer's instructions. Clonal stably transfected cell lines expressing human AT1TR or rat AT1aR were used for all experiments.
(§3) For assays, 4,000-8,000 cells were seeded per well in 384-well small-volume microplates “HiBase” small-volume plate in volumes of 20 uL and allowed to grow overnight at 37° C. in 5% CO2. Cell growth media was then replaced with stimulation buffer supplied by Cisbio containing 50 mM lithium chloride. […] For agonist detection, peptides were then further diluted in stimulation buffer to add peptide to the cells to reach final concentrations ranging from 100 uM to 1 pM. Following addition of peptides, cells were incubated at 37° C. in 5% CO2 for 30 minutes and then lysed with 4 uL of pre-mixed HTRF IP-One reagents diluted per manufacturer's instructions (Cisbio). Microplates were incubated for 60-90 minutes at room temperature and then time-resolved fluorescence intensities were measured using a PHERAstar Plus microplate reader from BMG Labtech. IP1 accumulation was measured as change in ratio of time-resolved fluorescent intensities measured at 665 nm and 620 nm.

[2] = molecular target: T2, human AT1R (Homo sapiens, UniProt P30556); assay: beta-arrestin2 recruitment assay (PathHunter), human AT1R; settings: for Emax: 1 h, read-out: Span (relative to hAngII)
T2 sequence (P30556 1-359): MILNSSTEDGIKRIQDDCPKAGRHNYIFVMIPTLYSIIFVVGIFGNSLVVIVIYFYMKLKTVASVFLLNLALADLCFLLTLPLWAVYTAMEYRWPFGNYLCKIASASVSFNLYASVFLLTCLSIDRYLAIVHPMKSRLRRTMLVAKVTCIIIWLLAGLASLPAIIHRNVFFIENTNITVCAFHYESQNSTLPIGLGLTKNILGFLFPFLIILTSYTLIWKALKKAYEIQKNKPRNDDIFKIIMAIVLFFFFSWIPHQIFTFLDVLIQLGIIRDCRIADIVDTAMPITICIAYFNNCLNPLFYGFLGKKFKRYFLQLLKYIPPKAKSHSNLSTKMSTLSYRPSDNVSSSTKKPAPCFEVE
Outline: (§4)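 Luminescence, in arbitrary units, read after 60 min room-temperature detection reflects β-arrestin-2 recruitment to human AT1R or rat AT1aR stably expressed in PathHunter HEK293 clones. Cells were exposed to peptides from 1 pM to 100 μM final in HEPES-buffered HBSS for 60 min at 37 °C.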

[3] = molecular target: T2, human AT1R; assay: IP1 accumulation assay (IP1 G-protein assay), human AT1R; settings: for Emax: read-out: Span (relative to hAngII)
Method: as §1, §2, §3

[4] = molecular target: T1, rat AT1aR; assay: beta-arrestin2 recruitment assay (PathHunter), rat AT1aR; settings: for Emax: 1 h, read-out: Span (relative to hAngII)
Outline: as §4

Row | SMILES | EC50 ([1]; read-out: EC50) | Emax [1] | EC50 ([1]; read-out: pEC50 (converted)) | Emax [2] | EC50 ([2]; read-out: EC50) | EC50 ([2]; read-out: pEC50 (converted)) | EC50 ([3]; read-out: EC50) | EC50 ([3]; read-out: pEC50 (converted)) | Emax [4] | EC50 ([4]; read-out: EC50) | EC50 ([4]; read-out: pEC50 (converted)) | EC50 (nM) [3] | pEC50 [3] | Emax [3]
1 | CNCC(=O)N[C@@H](CCCNC(=N)N)C(=O)N[C@H](C(=O)N[C@@H](Cc1ccc(O)cc1)C(=O)N1CCC[C@H]1C(=O)N[C@@H](Cc1c[nH]cn1)C(=O)N1CCC[C@H]1C(=O)N[C@@H](C)C(=O)O)C(C)C [SEQ ID NO: 1, Sar-Arg-Val-Tyr-Pro-His-Pro-Ala] (H-[Sar]RVYPHPA-OH) | > 0.6 nM | < 104% | > 0.631 nM | < 101% | > 3.2 nM | > 3.16 nM | > 10000 nM | > 0.631 nM | < 105% | > 3.2 nM | > 3.16 nM | – | – | –
2 | CC[C@H](C)[C@H](NC(=O)[C@@H]1CCCN1C(=O)[C@H](Cc1c[nH]cn1)NC(=O)C1(NC(=O)[C@H](Cc2ccc(O)cc2)NC(=O)[C@@H](NC(=O)[C@H](CCCN=C(N)N)NC(=O)CNC)C(C)C)CCCC1)C(=O)O [SEQ ID NO: 18, Sar-Arg-Val-Tyr-cyPen-His-Pro-Ile] (H-[Sar]RVY[Ac5c]HPI-OH) | > 0.6 nM | – | > 0.631 nM | – | > 3.2 nM | > 3.16 nM | > 1.3 nM | > 0.631 nM | – | > 3.2 nM | > 3.16 nM | – | – | –
3 | CNCC(=O)N[C@@H](CCCNC(=N)N)C(=O)N[C@H](C(=O)N[C@@H](Cc1ccc(O)cc1)C(=O)NC1(C(=O)N[C@@H](Cc2c[nH]cn2)C(=O)N2CCC[C@H]2C(=O)N[C@H](C(=O)O)[C@@H](C)O)CCCC1)C(C)C [SEQ ID NO: 21, Sar-Arg-Val-Tyr-cyPen-His-Pro-Thr] (H-[Sar]RVY[Ac5c]HPT-OH) | > 0.6 nM | < 104% | > 0.631 nM | < 101% | > 3.2 nM | > 3.16 nM | > 1.3 nM | > 0.631 nM | < 105% | > 3.2 nM | > 3.16 nM | – | – | –
4 | CC[C@H](C)[C@@H](C(=O)N[C@@H](Cc1c[nH]cn1)C(=O)N1CCC[C@H]1C(=O)N[C@@H](C)C(=O)O)N(C)C(=O)[C@H](Cc1ccc(O)cc1)NC(=O)[C@@H](NC(=O)[C@H](CCCNC(=N)N)NC(=O)CNC)C(C)C [SEQ ID NO: 58, Sar-Arg-Val-Tyr-NMeIle-His-Pro-Ala] | > 0.6 nM | < 104% | > 0.631 nM | < 101% | > 3.2 nM | > 3.16 nM | – | – | < 105% | > 3.2 nM | > 3.16 nM | Inactive | Inactive | –
5 | CNCC(=O)N[C@@H](CCCNC(=N)N)C(=O)N[C@H](C(=O)N[C@@H](Cc1ccc(O)cc1)C(=O)NC1(C(=O)N[C@@H](Cc2c[nH]cn2)C(=O)N2CCC[C@H]2C(=O)N[C@H](C(=O)O)[C@@H](C)O)CCCCC1)C(C)C [SEQ ID NO: 14, Sar-Arg-Val-Tyr-cyHex-His-Pro-Thr] (H-[Sar]RVY[Ac6c]HPT-OH) | > 0.6 nM | – | > 0.631 nM | < 101% | > 3.2 nM | > 3.16 nM | > 1.3 nM | > 0.631 nM | < 105% | > 3.2 nM | > 3.16 nM | – | – | –
6 | CNCC(=O)N[C@@H](CCCNC(=N)N)C(=O)N[C@H](C(=O)N[C@@H](Cc1ccc(O)cc1)C(=O)NC1(C(=O)N[C@@H](Cc2c[nH]cn2)C(=O)N2CCC[C@H]2C(=O)N[C@@H](Cc2ccccc2)C(=O)O)CCCCC1)C(C)C [SEQ ID NO: 17, Sar-Arg-Val-Tyr-cyHex-His-Pro-Phe] (H-[Sar]RVY[Ac6c]HPF-OH; N-terminus and C-terminus assumed) | > 0.6 nM | > 104% | – | > 101% | > 3.2 nM | – | < 1.3 nM | > 0.631 nM | < 105% | 3.2 nM | – | – | – | < 103%
7 | CNCC(=O)N[C@@H](CCCNC(=N)N)C(=O)N[C@H](C(=O)N[C@@H](Cc1ccc(O)cc1)C(=O)NC1(C(=O)N[C@@H](Cc2c[nH]cn2)C(=O)N2CCC[C@H]2C(=O)N[C@@H](Cc2ccc(O)cc2)C(=O)O)CCCCC1)C(C)C [SEQ ID NO: 55, Sar-Arg-Val-Tyr-cyHex-His-Pro-Tyr] (H-[Sar]RVY[Ac6c]HPY-OH) | > 0.6 nM | < 104% | > 0.631 nM | < 101% | > 3.2 nM | > 3.16 nM | > 1.3 nM | > 0.631 nM | < 105% | > 3.2 nM | > 3.16 nM | – | – | < 103%
8 | CNCC(=O)N[C@@H](CCCNC(=N)N)C(=O)N[C@H](C(=O)N[C@@H](Cc1ccc(O)cc1)C(=O)NC1(C(=O)N[C@@H](Cc2c[nH]cn2)C(=O)N2CCC[C@H]2C(=O)N[C@@H](Cc2ccccc2)C(=O)O)CCCC1)C(C)C [SEQ ID NO: 24, Sar-Arg-Val-Tyr-cyPen-His-Pro-Phe] (H-[Sar]RVY[Ac5c]HPF-OH) | > 0.6 nM | < 104% | > 0.631 nM | > 101% | > 3.2 nM | > 3.16 nM | < 1.3 nM | > 0.631 nM | < 105% | > 3.2 nM | > 3.16 nM | – | – | > 103%
9 | CNCC(=O)N[C@@H](CCCNC(=N)N)C(=O)N[C@H](C(=O)N[C@@H](Cc1ccc(O)cc1)C(=O)NC1(C(=O)N[C@@H](Cc2c[nH]cn2)C(=O)N2CCC[C@H]2C(=O)N[C@@H](CO)C(=O)O)CCCC1)C(C)C [SEQ ID NO: 22, Sar-Arg-Val-Tyr-cyPen-His-Pro-Ser] (H-[Sar]RVY[Ac5c]HPS-OH) | > 0.6 nM | < 104% | > 0.631 nM | < 101% | > 3.2 nM | > 3.16 nM | > 1.3 nM | > 0.631 nM | < 105% | > 3.2 nM | > 3.16 nM | – | – | –
10 | CNCC(=O)N[C@@H](CCCNC(=N)N)C(=O)N[C@H](C(=O)N[C@@H](Cc1ccc(O)cc1)C(=O)NC1(C(=O)N[C@@H](Cc2c[nH]cn2)C(=O)N2CCC[C@H]2C(=O)N[C@H](C(=O)O)C(C)(C)C)CCCCC1)C(C)C [SEQ ID NO: 56, Sar-Arg-Val-Tyr-cyHex-His-Pro-AA02] (H-[Sar]RVY[Ac6c]HP[Tle]-OH) | > 0.6 nM | < 104% | > 0.631 nM | < 101% | > 3.2 nM | > 3.16 nM | > 1.3 nM | > 0.631 nM | < 105% | > 3.2 nM | > 3.16 nM | – | – | < 103%
11 | CNCC(=O)N[C@@H](CCCNC(=N)N)C(=O)N[C@H](C(=O)N[C@@H](Cc1ccc(O)cc1)C(=O)N1CCC[C@H]1C(=O)N[C@@H](Cc1c[nH]cn1)C(=O)N1CCC[C@H]1C(=O)N[C@@H](Cc1ccccc1)C(=O)O)C(C)C [SEQ ID NO: 10, Sar-Arg-Val-Tyr-Pro-His-Pro-Phe] (H-[Sar]RVYPHPF-OH; N-terminus and C-terminus assumed) | – | < 104% | – | < 101% | – | – | – | – | > 105% | – | – | – | – | < 103%
12 | CNCC(=O)N[C@@H](CCCNC(=N)N)C(=O)N[C@H](C(=O)N[C@@H](Cc1ccc(O)cc1)C(=O)NC1(C(=O)N[C@@H](Cc2c[nH]cn2)C(=O)N2CCC[C@H]2C(=O)N[C@@H](CCSC)C(=O)O)CCCCC1)C(C)C [SEQ ID NO: 16, Sar-Arg-Val-Tyr-cyHex-His-Pro-Met] (H-[Sar]RVY[Ac6c]HPM-OH) | > 0.6 nM | < 104% | > 0.631 nM | < 101% | > 3.2 nM | > 3.16 nM | > 1.3 nM | > 0.631 nM | < 105% | > 3.2 nM | > 3.16 nM | – | – | < 103%
